The text below walks through data of patent US20260356846A1, “STATIN DERIVATIVES AND METHODS OF USING THE SAME” (The General Hospital Corporation, priority 2023, published 2026).

The test system of experiment [1] is STMN2 (WT STMN2-NLuc SH-SY5Y cells). In words: STMN2 nanoluciferase assay in WT SH-SY5Y cells (Table A: WT TDP-32; Table B: WT HD Luciferase). The class given is cell-based, human. As to conditions: Homo sapiens, SH-SY5Y, WT cell line; for maximal fold induction: Emax. As to the method: (§1) Neuroblastoma cells (ATCC) were cultured in DMEM/F12 (Gibco) supplemented with 10% fetal-bovine serum (Omega) and 1% penicillin-streptomycin (Gibco) at 37 °C with 5% CO2. For knockdown experiments, cells were transfected with SMARTpool ON-TARGETplus siRNA or control siRNA pool (D001810-10) (GE Dharmacon) at a final concentration of 50 nM, for 96 h in two doses (0, 24 h), after complexing with Lipofectamin RNAiMAX (Invitrogen) in Opti-MEM (Gibco) for 10 min.
(§2) WT and TDP-mut (N352S) SH-SY5Y cells were edited using CRISPR-Cas9 to express Nanoluciferase at the C-terminus of both endogenous STMN2 alleles. A single guided RNA targeting STMN2 C-terminus was designed (Benchling webtool) and cloned into pSpCas9-2A-green fluorescent protein (GFP) plasmid (px458-Addgene) using the BbsI restriction site. The sequence for guided RNA targeting STMN2 was: […]. For the repair template, overlapping fragments of 800 bp STMN2 homology arms flanking Nanoluciferase (NLuc, Promega) were generated and ligated into pUC57 backbone. A 42 bp GS-linker was also included 5′ to NLuc to prevent steric hindrance of the reporter to the final STMN2 exon. Fragments were ligated using Gibson Assembly and nucleofected simultaneously with pSpCas9-2A-GFP-gRNA plasmid using the Amaxa Nucleofector (assay A-023). Forty-eight hours following electroporation, cells were collected, and GFP-positive cells sorted and single-cell seeded into 96-well plates using the SH800S Sony cell sorter. Individual clones were expanded and DNA was extracted for PCR amplification of the STMN2 Ex5 genomic locus using primers within NLuc and outside the STMN2 5′ homology arm to confirm presence of the insert. The entire STMN2 coding region and all exon-intron junctions (>500-bp length of each intronic region) were then sequenced to verify the absence of any additional DNA alteration. qPCR analysis was performed with a wild-type isogenic SH-SY5Y cell line that had undergone the mutagenesis attempt but not acquired the insertion mutation during the original screening process.
(§3) TDP-mut STMN2-NLuc SH-SY5Y cells were used in small-molecule screening at ICCB-Longwood. 3000 cells/well were plated in white 384-well plates using a 50 ul sample volume. 24 hours after plating, compounds were added using 100 nl pin transfer. 24 hours later, 25 ul NLuc assay was added to each well according to manufacturer instructions (Promega, Cat #). Plates were shaken for 1 min prior to luminescence readings using EnVision2 machine. DMSO-only and WT STMN2-NLuc cells were included as negative and positive controls respectively on each plate, producing an average Z′score of ~0.7 across the screen. Each library plate was conducted in duplicate, and Z-scores calculated for each compound. For subsequent validation experiments, cell numbers in each well were quantified by hoescht staining at 1 μg/ml for 15 mins at 37C in black, clear bottom plates, prior to imaging at 4× using automated microscopy (ImageXpressMicro). Nuclei were then counted using a custom algorithm, and luciferase assay run as above. Luminescence results were then normalised against cell counts as RLU/cell.
(§4) Each compound was tested in triplicate in log doses ranging 0.01 μM−10 μM. The values are represented in luminescence normalized to the number of cells in the well, wherein darker grey correlates to higher RLU per cell and higher STMN2 protein expression.

Experiment [2] concerns STMN2 (TDP-mut (N352S) STMN2-NLuc SH-SY5Y cells). In words: STMN2 nanoluciferase assay in TDP-43 mutant SH-SY5Y cells (Table A: mut TDP-43; Table B: mut HD Luciferase). To be noted: mutant TDP-43 cell line; for EC50: Homo sapiens, SH-SY5Y. It is filed as cell-based, human. As to the method: as §1, §2, §3, §4
[3] abbreviates: Table A, read-out: EC50, WT TDP-32.
The mark [4] stands for this setting: Table B, read-out: EC50, WT HD Luciferase.
Setting [5] is: Table A, read-out: EC50, mut TDP-43.
The mark [6] stands for this setting: Table B, read-out: EC50, mut HD Luciferase.

A word on the EC50: it is the concentration needed to bring the measured effect to its halfway point. What is called maximal fold induction is the ratio of treated to control signal. Low values mean a weak induction, high ones a strong induction.

Molecules are shown by their SMILES. Like-named read-outs stand apart in the source and are kept apart here. Some results are limits rather than exact numbers.

In the case of `COCc1c(C2CCC2)nc(C2CC2)c(/C=C/[C@@H](O)C[C@@H](O)CC(=O)O)c1-c1ccc(F)cc1` [II-5, (3R,5S,E)-7-(6-cyclobutyl-2-cyclopropyl-4-(4-fluorophenyl)-5-(methoxymethyl)pyridin-3-yl)-3,5-dihydroxy hept-6-enoic acid], the EC50 was no more than 100 nM in experiment [1] (setting [3]), no more than 10 nM in experiment [1] (setting [4]), no more than 100 nM in experiment [2] (setting [5]) and no more than 10 nM in experiment [2] (setting [6]).
Consider `COCc1c(C2CCC2)nc(C2CCC2)c(/C=C/[C@@H](O)C[C@@H](O)CC(=O)O)c1-c1ccc(F)cc1` [II-6, (3R,5S,E)-7-(2,6-dicyclobutyl-4-(4-fluorophenyl)-5-(methoxymethyl)pyridin-3-yl)-3,5-dihydroxyhept-6-enoic acid], for which the EC50 in experiment [1] (setting [4]) and in experiment [2] (setting [6]) was 10 to 50 nM throughout.
With `O=C(O)C[C@H](O)C[C@H](O)/C=C/c1c(-c2ccc(F)cc2Cl)cc(C2CCC2)nc1C1CC1` [II-7, (3R,5S,E)-7-(4-(2-chloro-4-fluorophenyl)-6-cyclobutyl-2-cyclopropylpyridin-3-yl)-3,5-dihydroxyhept-6-enoic acid], the EC50 in experiment [1] (setting [4]) lay within 10 to 50 nM; in experiment [2] (setting [6]) it was 50 to 100 nM.
On to `O=C(O)C[C@H](O)C[C@H](O)/C=C/c1c(-c2ccc(F)cc2Cl)cc(C2CC2)nc1C1CC1` [II-8, (3R,5S,E)-7-(4-(2-chloro-4-fluorophenyl)-2,6-dicyclopropylpyridin-3-yl)-3,5-dihydroxyhept-6-enoic acid], for which the EC50 lay within 100 to 500 nM in experiment [1] (setting [3]), 10 to 50 nM in experiment [1] (setting [4]), 100 to 500 nM in experiment [2] (setting [5]) and 10 to 50 nM in experiment [2] (setting [6]).
As for `COCc1c(C2CC2)nc(C2CC2)c(/C=C/[C@@H](O)C[C@@H](O)CC(=O)O)c1-c1ccc(F)cc1Cl` [II-9, (3R,5S,E)-7-(4-(2-chloro-4-fluorophenyl)-2,6-dicyclopropyl-5-(methoxymethyl)pyridin-3-yl)-3,5-dihydroxyhept-6-enoic acid], the EC50 was no more than 100 nM in experiment [1] (setting [3]), no more than 10 nM in experiment [1] (setting [4]), no more than 100 nM in experiment [2] (setting [5]) and no more than 10 nM in experiment [2] (setting [6]). For the same compound, the maximal fold induction in experiment [1] (Table B) is 1.5 to 1.75.
Regarding `COCc1c(C2CC2)nc(C2CC2)c(/C=C/[C@@H](O)C[C@@H](O)CC(=O)O)c1-c1ccc(F)cc1C` [II-10, (3R,5S,E)-7-(2,6-dicyclopropyl-4-(4-fluoro-2-methylphenyl)-5-(methoxymethyl)pyridin-3-yl)-3,5-dihydroxyhept-6-enoic acid], the EC50 in experiment [1] (setting [4]) and in experiment [2] (setting [6]) was no more than 10 nM each time.
Turning to `Cc1cc(F)ccc1-c1cc(C2CC2)nc(C2CC2)c1/C=C/[C@@H](O)C[C@@H](O)CC(=O)O` [II-12, (3R,5S,E)-7-(2,6-dicyclopropyl-4-(4-fluoro-2-methylphenyl)pyridin-3-yl)-3,5-dihydroxyhept-6-enoic acid], the EC50 in experiment [1] (setting [4]) and in experiment [2] (setting [6]) was no more than 10 nM throughout.
With `COCc1c(C2CC2)nc(C2CC2)c(/C=C/[C@@H](O)C[C@@H](O)CC(=O)O)c1-c1cc(F)ccc1Cl` [II-13, (3R,5S,E)-7-(4-(2-chloro-5-fluorophenyl)-2,6-dicyclopropyl-5-(methoxymethyl)pyridin-3-yl)-3,5-dihydroxyhept-6-enoic acid], the EC50 in experiment [1] (setting [4]) and in experiment [2] (setting [6]) was 10 to 50 nM each time.
Turning to `Cc1cc(F)ccc1-c1cc(C23CC(C2)C3)nc(C2CC2)c1/C=C/[C@@H](O)C[C@@H](O)CC(=O)O` [II-14, (3R,5S,E)-7-(6-(bicyclo[1.1.1]pentan-1-yl)-2-cyclopropyl-4-(4-fluoro-2-methylphenyl)pyridin-3-yl)-3,5-dihydroxyhept-6-enoic acid], the EC50 in experiment [1] (setting [4]) and in experiment [2] (setting [6]) was 100 to 500 nM in each case.
With `O=C(O)C[C@H](O)C[C@H](O)/C=C/c1c(-c2ccc(F)cc2)cc(C23CC(C2)C3)nc1C1CC1` [II-16, (3R,5S,E)-7-(6-(bicyclo[1.1.1]pentan-1-yl)-2-cyclopropyl-4-(4-fluorophenyl)pyridin-3-yl)-3,5-dihydroxyhept-6-enoic acid], the EC50 in experiment [1] (setting [4]) lay within 50 to 100 nM; in experiment [2] (setting [6]) it was 100 to 500 nM. The “HD Luciferase (mut, Emax)” value in experiment [2] (Table B) is “** (means≥1.25 and <1.5)”.
Take `COCc1c(C2CC2)nc(C2CC2)c(/C=C/[C@@H](O)C[C@@H](O)CC(=O)O)c1-c1c(C)cc(F)cc1F` [II-17, (3R,5S,E)-7-(2,6-dicyclopropyl-4-(2,4-difluoro-6-methylphenyl)-5-(methoxymethyl)pyridin-3-yl)-3,5-dihydroxyhept-6-enoic acid]: the maximal fold induction in experiment [1] (Table B) lay within 1.5 to 1.75. For the same compound, the EC50 in experiment [1] (setting [4]) and in experiment [2] (setting [6]) was no more than 10 nM throughout.
Turning to `COCc1c(C2CC2)nc(C2CC2)c(/C=C/[C@@H](O)C[C@@H](O)CC(=O)O)c1-c1c(C)cccc1F` [II-18, (3R,5S,E)-7-(2,6-dicyclopropyl-4-(2-fluoro-6-methylphenyl)-5-(methoxymethyl)pyridin-3-yl)-3,5-dihydroxyhept-6-enoic acid], the EC50 in experiment [1] (setting [4]) and in experiment [2] (setting [6]) was 10 to 50 nM each time.
As for `COCc1c(C2CC2)nc(C2CC2)c(/C=C/[C@@H](O)C[C@@H](O)CC(=O)O)c1-c1ccc(Cl)cc1F` [II-19, (3R,5S,E)-7-(4-(4-chloro-2-fluorophenyl)-2,6-dicyclopropyl-5-(methoxymethyl)pyridin-3-yl)-3,5-dihydroxyhept-6-enoic acid], the EC50 in experiment [1] (setting [4]) and in experiment [2] (setting [6]) was 10 to 50 nM throughout.
In the case of `COCc1c(C2CC2)nc(C2CC2)c(/C=C/[C@@H](O)C[C@@H](O)CC(=O)O)c1-c1cc(Cl)ccc1F` [II-20, (3R,5S,E)-7-(4-(5-chloro-2-fluorophenyl)-2,6-dicyclopropyl-5-(methoxymethyl)pyridin-3-yl)-3,5-dihydroxyhept-6-enoic acid], the maximal fold induction in experiment [1] (Table B) lay in the range of 1.25 to 1.5. Besides, the EC50 in experiment [1] (setting [4]) and in experiment [2] (setting [6]) was 10 to 50 nM each time.
Take `COCc1c(C2CC2)nc(C2CC2)c(/C=C/[C@@H](O)C[C@@H](O)CC(=O)O)c1-c1c(F)cc(F)cc1Cl` [II-21, (3R,5S,E)-7-(4-(2-chloro-4,6-difluorophenyl)-2,6-dicyclopropyl-5-(methoxymethyl)pyridin-3-yl)-3,5-dihydroxyhept-6-enoic acid]: the maximal fold induction in experiment [1] (Table B) was 1.5 to 1.75. Besides, the EC50 in experiment [1] (setting [4]) and in experiment [2] (setting [6]) was no more than 10 nM each time.
With `COCc1c(C2CC2)nc(C2CC2)c(/C=C/[C@@H](O)C[C@@H](O)CC(=O)O)c1-c1c(F)cccc1Cl` [II-22, (3R,5S,E)-7-(4-(2-chloro-6-fluorophenyl)-2,6-dicyclopropyl-5-(methoxymethyl)pyridin-3-yl)-3,5-dihydroxyhept-6-enoic acid], the EC50 in experiment [1] (setting [4]) and in experiment [2] (setting [6]) was 10 to 50 nM each time.
`O=C(O)C[C@H](O)C[C@H](O)/C=C/c1c(C2CC2)nc(C2CC2)c(COC2CC2)c1-c1ccc(Cl)cc1F` [II-23, (3R,5S,E)-7-(4-(4-chloro-2-fluorophenyl)-5-(cyclopropoxymethyl)-2,6-dicyclopropylpyridin-3-yl)-3,5-dihydroxyhept-6-enoic acid]: the EC50 in experiment [1] (setting [4]) and in experiment [2] (setting [6]) was 10 to 50 nM each time.
In experiment [1] (Table B), `COCc1c(C2CC2)nc(C2CC2)c(/C=C/[C@@H](O)C[C@@H](O)CC(=O)O)c1-c1cc(F)ccc1C` [II-24, (3R,5S,E)-7-(2,6-dicyclopropyl-4-(5-fluoro-2-methylphenyl)-5-(methoxymethyl)pyridin-3-yl)-3,5-dihydroxyhept-6-enoic acid] gave a maximal fold induction of 1.25 to 1.5. Besides, the EC50 in experiment [1] (setting [4]) and in experiment [2] (setting [6]) was 10 to 50 nM each time. In addition, in experiment [2] (Table B), the “HD Luciferase (mut, Emax)” value was “** (means≥1.25 and <1.5)”.
